How the values were obtained:
Format in all cases: cell-based
Conditions in all cases: third passage
CHO cells = assay: Growth of CHO cells in transferrin-free CD CHO medium with metal binding compounds
Experimental: The ability of metal binding compounds to support cellular growth in the absence of transferrin was evaluated using CHO cells maintained in CD CHO medium (Life Technologies, Rockville, Md., the formulation of which is described in WO 98/08934). Stock cultures containing 5 μg/mL human holo-transferrin were prepared in CD CHO medium. For metal binding compound evaluation, CHO cells were established in 125 mL shaker flasks at an initial viable seeding density of 1×10^5 cells/mL in a final volume of 20 mL. All cultures were maintained at 37° C. in humidified air containing 8% CO2. To eliminate transferrin carry-over effects, cells were subcultured at 4 day intervals for a total of three passages. Positive control cultures contained 5 μg/mL human holo-transferrin while negative control cultures were established in the absence of either transferrin or metal binding compound. Metal binding compound stocks were prepared at 0.1M-0.2M in ddH2O and solubilized when necessary using 5N NaOH or HCl. Iron complexes were established using 0.2M metal binding compound and iron stocks mixed 1:1 (v/v) and incubated for 5-10 minutes at 22° C. All solutions containing metal binding compounds were filter sterilized using a 0.22 μm Millex-GV filter prior to addition to transferrin and serum-free media.
(§1) In most cases, metal binding compounds were evaluated either alone or in combination with ferric chloride or ferrous sulfate at 25 μM, 50 μM and 100 μM. Values in the table represent the mean percentage of control growth for duplicate cultures determined at the third passage.
The ability of various metal binding compounds to substitute for transferrin in the culture of CHO cells was determined. When added to the medium formulation un-complexed, the metal binding compound is listed alone, when added as a complex with a transition metal, the source of the transition metal is listed with the metal binding compound.

293 cells = assay: Growth of 293 cells in transferrin-free 293 SFM with metal binding compounds
Experimental: Semi-confluent adherent cultures of 293 Cells (ATCC, CRL 1573) are readily adapted to suspension culture. The cells are first detached with a solution of Trypsin-EDTA (0.05% Trypsin, 0.53 mM Na4EDTA), and then resuspended in conventional medium supplemented with 10% FBS to inhibit the trypsin. The resuspended cells are centrifuged at 200×g for five minutes. The cell pellet is resuspended in 293 SFM (available from Life Technologies, Rockville, Md.) the formulation of which is described in WO 98/08934 which is specifically incorporated herein by reference. Alternatively, the cells may be detached with Versene (Na4EDTA, 0.53 mM) and resuspended in 293 SFM.
The initial seeding density of the 293 cells after conversion to suspension culture is 1×10^6 cells/mL. The cells are shaken on a rotary shaker at 150 rpm in a 37° C. incubator equilibrated with 8% CO2-92% air. When the cells reach a density of 1.5×10^6 cells/mL they are diluted with 293 SFM to a density of 3.0×10^5 cells/mL. Because 293 cells have a tendency to aggregate, the cells may be vortexed vigorously for approximately 45 seconds to obtain a predominantly single cell suspension at the time of passaging and counting. After several passages in suspension culture, the maximum achievable density may be determined.
The ability of metal binding compounds to support cellular growth was evaluated using 293 cells maintained in 293 SFM (Life Technologies, Rockville, Md.) without transferrin or metal binding compound. Stock cultures containing 5 μg/mL human holo-transferrin were prepared in 293 SFM. For metal binding compound evaluation, 293 cells were established in 125 mL shaker flasks at an initial viable seeding density of 2×10^5 cells/mL in a final volume of 20 mL. All cultures were maintained at 37° C. in humidified air containing 8% CO2. To eliminate transferrin carry-over effects, cells were subcultured at 4 day intervals for a total of three passages. At each subculturing, cells were seeded at a density of 2×10^5 cells/mL. Positive control cultures contained 5 μg/mL human holo-transferrin while negative control cultures were established in the absence of either transferrin or metal binding compound. Metal binding compound stocks were prepared at 0.1M-0.2M in ddH2O and solubilized when necessary using 5N NaOH or HCl. Iron complexes were established using 0.2M metal binding compound and iron stocks mixed 1:1 (v/v) and incubated for 5-10 minutes at 22° C. All solutions containing metal binding compounds were filter sterilized using a 0.22 μm Millex-GV filter prior to addition to transferrin and serum-free media.
as §1, with “μM. When used in combination, the metal binding compounds were used in equimolar concentration with iron ions.” for “μM.”
(§2) When added to the medium formulation un-complexed, the metal binding compound is listed alone, when added as a complex with a transition metal, the source of the transition metal is listed with the metal binding compound.

Sp2/0 cells = assay: Growth of Sp2/0 cells in transferrin-free CD Hybridoma medium with metal binding compounds
Experimental: The ability of iron metal binding compounds to support cellular growth in the absence of transferrin was evaluated using Sp2/0 cells maintained in CD Hybridoma medium (Life Technologies, Rockville, Md.). Stock cultures containing 5 μg/mL human holo-transferrin were prepared in CD Hybridoma medium. For metal binding compound evaluation, Sp2/0 cells were established at an initial viable cell density of 0.5×10^5 cells/mL in stationary culture using 75 cm^2 tissue culture flasks in a final volume of 20 mL. All cultures were maintained at 37° C. in humidified air containing 8% CO2. To eliminate transferrin carry-over effects, cells were subcultured at the same seeding density at 4 day intervals for a total of three passages. Positive control cultures contained 5 μg/mL human holotransferrin while negative control cultures were established in the absence of either transferrin or metal binding compound. Metal binding compound stocks were prepared at 0.1M-0.2M in ddH2O and solubilized when necessary using 5N NaOH or HCl. Iron complexes were established using 0.2M metal binding compound and iron stocks mixed 1:1 (v/v) and incubated for 5-10 minutes at 22° C. All solutions containing metal binding compounds were filter sterilized using a 0.22 μm Millex-GV filter prior to addition to transferrin and serum-free media.
as §1, §2

[1] = 25 μM, control = 5 μg/mL human holo-transferrin, duplicate cultures
[2] = 50 μM, control = 5 μg/mL human holo-transferrin, duplicate cultures
[3] = 100 μM, control = 5 μg/mL human holo-transferrin, duplicate cultures
[4] = 5 μM, control = holo-transferrin
[5] = 10 μM, control = holo-transferrin
[6] = 20 μM, control = holo-transferrin

[Cl][Fe]([Cl])[Cl].c1ccc(Nc2ccccn2)nc1 [2,2-Dipyridylamine · Ferric Chloride]
mean percentage of control growth (CHO cells; [1]): 40%
mean percentage of control growth (CHO cells; [2]): 48%
mean percentage of control growth (CHO cells; [3]): 65%
mean percentage of control growth (293 cells; [1]): 118%
mean percentage of control growth (293 cells; [2]): 96%
mean percentage of control growth (293 cells; [3]): 101%

CCc1occc(=O)c1O [2-Ethyl-3-Hydroxy-4-Pyrone]
mean percentage of control growth (CHO cells; [1]): 9%
mean percentage of control growth (CHO cells; [2]): 60%
mean percentage of control growth (CHO cells; [3]): 113%
mean percentage of control growth (293 cells; [1]): 59%
mean percentage of control growth (293 cells; [2]): 120%
mean percentage of control growth (293 cells; [3]): 126%
mean percentage of control growth (Sp2/0 cells; [1]): 0%
mean percentage of control growth (Sp2/0 cells; [2]): 75%
mean percentage of control growth (Sp2/0 cells; [3]): 116%

O=C(O)c1ccccn1.[Cl][Fe]([Cl])[Cl] [2-Pyridinecarboxylic Acid · Ferric Chloride]
mean percentage of control growth (CHO cells; [1]): 88%
mean percentage of control growth (CHO cells; [2]): 89%
mean percentage of control growth (CHO cells; [3]): 100%
mean percentage of control growth (Sp2/0 cells; [1]): 0%
mean percentage of control growth (Sp2/0 cells; [2]): 30%
mean percentage of control growth (Sp2/0 cells; [3]): 48%

[Cl][Fe]([Cl])[Cl].[O-][n+]1cccc(O)c1 [3-Hydroxypyridine-N-Oxide · Ferric Chloride]
mean percentage of control growth (CHO cells; [1]): 77%
mean percentage of control growth (CHO cells; [2]): 66%
mean percentage of control growth (CHO cells; [3]): 101%
mean percentage of control growth (293 cells; [1]): 77%
mean percentage of control growth (293 cells; [2]): 72%
mean percentage of control growth (293 cells; [3]): 81%
mean percentage of control growth (Sp2/0 cells; [1]): 55%
mean percentage of control growth (Sp2/0 cells; [2]): 54%
mean percentage of control growth (Sp2/0 cells; [3]): 57%

Cc1ncc(CO)c(C(=O)O)c1O.[Cl][Fe]([Cl])[Cl] [4-Pyridoxic Acid · Ferric Chloride]
mean percentage of control growth (CHO cells; [1]): 55%
mean percentage of control growth (CHO cells; [2]): 63%
mean percentage of control growth (CHO cells; [3]): 100%
mean percentage of control growth (293 cells; [1]): 109%
mean percentage of control growth (293 cells; [2]): 85%
mean percentage of control growth (293 cells; [3]): 99%
mean percentage of control growth (Sp2/0 cells; [1]): 40%
mean percentage of control growth (Sp2/0 cells; [2]): 73%
mean percentage of control growth (Sp2/0 cells; [3]): 76%

NC(CC(=O)O)C(=O)O.[Cl][Fe]([Cl])[Cl] (stereo not drawn) [Aspartic Acid · Ferric Chloride]
mean percentage of control growth (CHO cells; [1]): 77%
mean percentage of control growth (CHO cells; [2]): 89%
mean percentage of control growth (CHO cells; [3]): 112%
mean percentage of control growth (293 cells; [1]): 81%
mean percentage of control growth (293 cells; [2]): 86%
mean percentage of control growth (293 cells; [3]): 100%

NC(CS)C(=O)O.O=S(=O)([O-])[O-].[Fe+2] (stereo not drawn) [Cysteine · Ferrous Sulfate]
mean percentage of control growth (CHO cells; [1]): 83%
mean percentage of control growth (CHO cells; [2]): 64%
mean percentage of control growth (CHO cells; [3]): 45%
mean percentage of control growth (Sp2/0 cells; [1]): 85? %
mean percentage of control growth (Sp2/0 cells; [2]): 79%
mean percentage of control growth (Sp2/0 cells; [3]): 67%

CC(=O)N(O)CCCCCNC(=O)CCC(=O)N(O)CCCCCNC(=O)CCC(=O)N(O)CCCCCN.CS(=O)(=O)O.[Cl][Fe]([Cl])[Cl] [Deferoxamine Mesylate · Ferric Chloride]
mean percentage of control growth (CHO cells; [4]): 50%
mean percentage of control growth (CHO cells; [5]): 74%
mean percentage of control growth (CHO cells; [6]): 52%
mean percentage of control growth (293 cells; [4]): 101%
mean percentage of control growth (293 cells; [5]): 120%
mean percentage of control growth (293 cells; [6]): 127%
mean percentage of control growth (Sp2/0 cells; [4]): 0%
mean percentage of control growth (Sp2/0 cells; [5]): 0%
mean percentage of control growth (Sp2/0 cells; [6]): 0%

O=C(O)CN(CCN(CC(=O)O)CC(=O)O)CCN(CC(=O)O)CC(=O)O.O=S(=O)([O-])[O-].[Fe+2] [Diethylenetriamine Penta-Acetic Acid · Ferrous Sulfate]
mean percentage of control growth (CHO cells; [1]): 135%
mean percentage of control growth (CHO cells; [2]): 137%
mean percentage of control growth (CHO cells; [3]): 147%
mean percentage of control growth (293 cells; [1]): 77%
mean percentage of control growth (293 cells; [2]): 107%
mean percentage of control growth (293 cells; [3]): 85%
mean percentage of control growth (Sp2/0 cells; [1]): 54%
mean percentage of control growth (Sp2/0 cells; [2]): 90%
mean percentage of control growth (Sp2/0 cells; [3]): 91%

[Cl][Fe]([Cl])[Cl] [Ferric Chloride, reference compound]
mean percentage of control growth (CHO cells; [1]): 56%
mean percentage of control growth (CHO cells; [2]): 85%
mean percentage of control growth (CHO cells; [3]): 101%
mean percentage of control growth (293 cells; [1]): 87%
mean percentage of control growth (293 cells; [2]): 91%
mean percentage of control growth (293 cells; [3]): 109%
mean percentage of control growth (Sp2/0 cells; [1]): 55%
mean percentage of control growth (Sp2/0 cells; [2]): 73%
mean percentage of control growth (Sp2/0 cells; [3]): 74%

O=c1cc(CO)occ1O.[Cl][Fe]([Cl])[Cl] [Kojic Acid · Ferric Chloride]
mean percentage of control growth (CHO cells; [1]): 89%
mean percentage of control growth (CHO cells; [2]): 88%
mean percentage of control growth (CHO cells; [3]): 85%
mean percentage of control growth (Sp2/0 cells; [1]): 0%
mean percentage of control growth (Sp2/0 cells; [2]): 0%
mean percentage of control growth (Sp2/0 cells; [3]): 0%

O=c1cc(CO)occ1O [Kojic Acid]
mean percentage of control growth (CHO cells; [1]): 0%
mean percentage of control growth (CHO cells; [2]): 0%
mean percentage of control growth (CHO cells; [3]): 0%
mean percentage of control growth (Sp2/0 cells; [1]): 0%
mean percentage of control growth (Sp2/0 cells; [2]): 0%
mean percentage of control growth (Sp2/0 cells; [3]): 0%

O=C(O)c1ccc[n+]([O-])c1.[Cl][Fe]([Cl])[Cl] [Nicotinic Acid-N-Oxide · Ferric Chloride]
mean percentage of control growth (CHO cells; [1]): 60%
mean percentage of control growth (CHO cells; [2]): 84%
mean percentage of control growth (CHO cells; [3]): 105%
mean percentage of control growth (293 cells; [1]): 104%
mean percentage of control growth (293 cells; [2]): 80%
mean percentage of control growth (293 cells; [3]): 79%

OC[C@@H](O)[C@@H](O)[C@H](O)[C@@H](O)CO.[Cl][Fe]([Cl])[Cl] [Sorbitol · Ferric Chloride]
mean percentage of control growth (CHO cells; [1]): 100%
mean percentage of control growth (CHO cells; [2]): 107%
mean percentage of control growth (CHO cells; [3]): 112%
mean percentage of control growth (Sp2/0 cells; [1]): 94%
mean percentage of control growth (Sp2/0 cells; [2]): 55%
mean percentage of control growth (Sp2/0 cells; [3]): 60%
